Results as given in patent US20260200945A1, “4-(3,8-DIAZABICYCLO[3,2,1]OCTAN-3-YL)-PYRIDO[4,3-D]PYRIMIDINE DERIVATIVES AS INHIBITORS OF THE KRAS (G12D) MUTANT ONCOPROTEIN FOR THE TREATMENT OF CANCER” (Ranok Therapeutics (Hangzhou) Co. Ltd., priority 2022, published 2026).

Legend:
GP2D cells = test: Cancer Cell Line Proliferation (CellTiter-Glo) GP2D; type: cell-based; conditions: 72 hr, read-out: CTG(IC50) ABS-72H(nM) GP2D
Description: (§1) AGS, SW1990, and GP2D cells were plated in 96-well tissue culture plates at 4,000 cells/well and incubated at 37° C./5% CO2 for 72 hr in 100 μl of media. 3-fold serial dilutions of each test compound were prepared ranging from 20 µM to 1.02 nM. Each cell line was then treated with test compounds at various concentrations with a final concentration of 0.5% DMSO/well, and then incubated at 37° C./5% CO2 for 72 hr. 100 μl of CellTiter-Glo® Reagent (Promega Corporation, Madison, WI) was added to each well and processed according manufacturer's protocol. Results were analyzed and IC50 values were calculated in GraphPad 7 software.

AGS cells = test: Cancer Cell Line Proliferation (CellTiter-Glo) AGS; type: cell-based; conditions: Homo sapiens, 72 hr, read-out: CTG(IC50) ABS-72H(nM) AGS
Description: as §1, with “The following cancer cell lines were employed: AGS gastric carcinoma [heterozygous […]](ATCC, CRL-1739); A-427 lung carcinoma [heterozygous G12D](ATCC, HTB-53); ASPC1 pancreatic adenocarcinoina [homozygous […]](ATCC, CRL-1682) and SW1990 pancreatic adenocarcinoma [homozygous G12D](ATCC CRL-2172). Cell lines were cultured essentially according to ATCC recommendations. AGS,” for “AGS,”

SW1990 cells = test: Cancer Cell Line Proliferation (CellTiter-Glo) SW1990; type: cell-based; conditions: Homo sapiens, 72 hr, read-out: CTG(IC50) ABS-72H(nM) SW1990
Description: as §1, with “The following cancer cell lines were employed: AGS gastric carcinoma [heterozygous […]](ATCC, CRL-1739); A-427 lung carcinoma [heterozygous G12D](ATCC, HTB-53); ASPC1 pancreatic adenocarcinoina [homozygous […]](ATCC, CRL-1682) and SW1990 pancreatic adenocarcinoma [homozygous G12D](ATCC CRL-2172). Cell lines were cultured essentially according to ATCC recommendations. AGS,” for “AGS,”

[1] = Oral Bioavailability in CD-1 mice; type: in vivo; conditions: mouse, blood; male CD-1 mice, single oral dose, LC-MS/MS; read-out: % F (mean oral bioavailability)
Description: CD-1 mice were randomly assigned to 6 groups with 3 male mice in each compound group. Compounds were orally administered (P0) in a single dose to each mouse in its group. Blood samples were taken within 72 hours. Bioavailability (F %) was determined and by liquid chromatography-mass spectrometry (LC-MS/MS).

KRAS(G12D)/SOS1 = target: T1, KRAS(G12D)/SOS1 (Homo sapiens, UniProt P01116, G12D); test: KRAS(G12D)/SOS1 Homogeneous Time-Resolved Fluorescence (HTRF) Assay; type: binding; conditions: absence of GTP, 4° C. for 3 hr
T1 construct: purchased Cisbio 63ADK000CB17PEH
Description: Binding of test compounds to KRAS(G12D) target protein, which in turn blocks KRAS(G12D) interaction with the SOS1 protein, was measured in the absences of GTP by homogeneous time-resolved fluorescence using the KRAS-G12D/SOS1 Binding Assay Kit (Cisbio, 63ADK000CB17PEH), following the manufacturer's instructions, except as noted. 3-fold serial dilutions of each test compound were prepared ranging from 20 µM to 1.02 nM. The test compound was mixed and incubated with reaction components, incubated in a sealed plate at 4° C. for 3 hr and fluorescence was measured using a PerkinElmer Envision plate reader. The KRAS(G12D)-SOS1 IC50 values (the concentration of 50% of the maximal inhibition) were calculated using GraphPad Prism 7 software.

T1 sequence (P01116 1-188 isoform P01116-2 G12D): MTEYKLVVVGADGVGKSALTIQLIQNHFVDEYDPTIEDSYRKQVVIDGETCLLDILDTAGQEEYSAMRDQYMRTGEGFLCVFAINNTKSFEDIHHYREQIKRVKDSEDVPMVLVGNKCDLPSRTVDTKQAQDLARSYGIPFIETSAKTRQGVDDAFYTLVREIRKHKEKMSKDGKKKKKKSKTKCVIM

Structure (SMILES)	IC50 (GP2D cells) [nM]	IC50 (AGS cells) [nM]	IC50 (SW1990 cells) [nM]	bioavailability [1] [%]	IC50 (KRAS(G12D)/SOS1) [µM]
C#Cc1c(F)ccc2cc(O)cc(-c3nc(OC)c4c(N5CC6CCC(C5)N6)nc(OC/C(CN5CC6CC6C5)=N\OC)nc4c3F)c12 (centres unmarked) [Example 16]	< 100	< 100	–	–	–
C#Cc1c(F)ccc2cc(O)cc(-c3nc(OC)c4c(N5CC6CCC(C5)N6)nc(OC/C(=C\C)CN5CC6CC6C5)nc4c3F)c12 (centres unmarked) [Example 9]	< 100	< 100	–	–	–
C#Cc1c(F)ccc2cc(O)cc(-c3nc(OC)c4c(N5CC6CCC(C5)N6)nc(OCC(=C)CN5CC6C(F)C6C5)nc4c3F)c12 (centres unmarked) [Example 5]	< 100	< 100	< 100	7.7	< 0.1
[2H]C([2H])([2H])Oc1nc(-c2cc(O)cc3ccc(F)c(C#C)c23)c(F)c2nc(OCC(=C)CN3CC4C(F)C4C3)nc(N3CC4CCC(C3)N4C(=O)C(F)(F)F)c12 (centres unmarked) [Example 8]	100 to 1000	100 to 1000	–	–	–
C#Cc1c(F)ccc2cc(O)cc(-c3nc(OC)c4c(N5CC6CCC(C5)N6)nc(OCC(CN5CC6CC6C5)=C(F)F)nc4c3F)c12 (centres unmarked) [Example 6]	< 100	< 100	< 100	–	–
[2H]C([2H])([2H])Oc1nc(-c2cc(O)cc3ccc(F)c(C#C)c23)c(F)c2nc(OCC(=C)CN3CC4CC4C3)nc(N3CC4CCC(C3)N4)c12 (centres unmarked) [Example 4]	< 100	< 100	< 100	1.7	< 0.1
C#Cc1c(F)ccc2cc(O)cc(-c3nc(OC)c4c(N5CC6CCC(C5)N6)nc(OCC(=C)CN5CC6CC6C5)nc4c3F)c12 (centres unmarked) [Example 1, 4-{2-[(2-{3-azabicyclo[3.1.0]hexan-3-ylmethyl}prop-2-en-1-yl)oxy]-4-{3,8-diazabicyclo[3.2.1]octan-3-yl}-8-fluoro-5-methoxypyrido[4,3-d]pyrimidin-7-yl}-5-ethynyl-6-fluoronaphthalen-2-ol]	< 100	< 100	< 100	10.6	< 0.1
C#Cc1c(F)ccc2cc(O)cc(-c3nc(OC)c4c(N5CC6CCC(C5)N6)nc(OC/C(=C\C#N)CN5CC6CC6C5)nc4c3F)c12 (centres unmarked) [Example 18]	–	100 to 1000	–	–	–
C#Cc1c(F)ccc2c(F)c(O)cc(-c3nc(OC)c4c(N5CC6CCC(C5)N6)nc(OCC(CN5CC6CC6C5)=C(C)C)nc4c3F)c12 (centres unmarked) [Example 19]	< 100	100 to 1000	–	–	–
C#Cc1c(F)ccc2cc(O)cc(-c3nc(OC)c4c(N5CC6CCC(C5)N6CC#N)nc(OCC(CN5CC6CC6C5)=C(C)C)nc4c3F)c12 (centres unmarked) [Example 14]	< 100	< 100	–	–	–
C#Cc1c(F)ccc2cc(O)cc(-c3nc(OC)c4c(N5CC6CCC(C5)N6)nc(OC/C(=C\CC)CN5CC6CC6C5)nc4c3F)c12 (centres unmarked) [Example 12]	< 100	100 to 1000	–	–	–
C#Cc1c(F)ccc2cc(N)cc(-c3nc(OC)c4c(N5CC6CCC(C5)N6)nc(OCC(=C)CN5CC6CC6C5)nc4c3F)c12 (centres unmarked) [Example 10]	< 100	100 to 1000	–	–	–
C#Cc1c(F)ccc2cc(O)cc(-c3nc(OC)c4c(N5CC6CCC(C5)N6)nc(OCC(CN5CC6CC6C5)=C(C)C)nc4c3F)c12 (centres unmarked) [Example 2, 4-{2-[(2-{3-azabicyclo[3.1.0]hexan-3-ylmethyl}-3-methylbut-2-en-1-yl)oxy]-4-{3,8-diazabicyclo[3.2.1]octan-3-yl}-8-fluoro-5-methoxypyrido[4,3-d]pyrimidin-7-yl}-5-ethynyl-6-fluoronaphthalen-2-ol]	< 100	< 100	< 100	12.1	< 0.1
C#Cc1c(F)ccc2cc(O)cc(-c3nc(OC)c4c(N5CC6CCC(C5)N6)nc(OC/C(=C\C(F)(F)F)CN5CC6CC6C5)nc4c3F)c12 (centres unmarked) [Example 13]	100 to 1000	100 to 1000	–	–	–
C#Cc1c(F)ccc2cc(O)cc(-c3ncc4c(N5CC6CCC(C5)N6)nc(OCC(=C)CN5CCC(F)CC5)nc4c3F)c12 [Example 3]	< 100	< 100	< 100	–	< 0.1
C#Cc1c(F)ccc2cc(O)cc(-c3nc(OC)c4c(N5CC6CCC(C5)N6)nc(OCC(=CCC)CN5CC6CC6C5)nc4c3F)c12 (centres unmarked) [Example 7]	100 to 1000	100 to 1000	–	–	–
C#Cc1c(F)ccc2cc(O)cc(-c3nc(OC)c4c(N5CC6CCC(C5)N6)nc(OC/C(CN5CC6CC6C5)=N/OC)nc4c3F)c12 (centres unmarked) [Example 15]	< 100	< 100	–	–	–
C#Cc1c(F)ccc2cc(O)cc(-c3nc(OC)c4c(N5CC6CCC(C5)N6)nc(OC/C(=C/CC)CN5CC6CC6C5)nc4c3F)c12 (centres unmarked) [Example 11]	< 100	< 100	–	–	–
